The test system of this assay is HIV-1IIIB. Nature of the assay: Anti-HIV cytoprotection assay in CEM-SS cells infected with HIV-1IIIB, XTT viability readout after 6 days. The format is cell-based. Here is the method:
In some aspect, CEM-SS cells were incubated at 37° C./5% CO2 with serially diluted compound and a known titer of HIV-1IIIB for 6 days. The CEM-SS cell line is a derivative of the human T lymphosarcoma cell line CEM that is permissive for vif-deficient HIV-1 replication. Following the incubation, the cells were stained with the tetrazolium dye XTT and read at 460/650 nm on a spectrophotometer to evaluate cellular viability. Efficacy and toxicity values were calculated using linear regression analysis. The efficacy of compound H-a was compared to that of dolutegravir. The EC50 of compound II-a was in a range of 0.070-0.02 nM (e.g. 0.070, 0.075, 0.080, 0.085, 0.090, 0.095, 0.010, 0.015 or 0.02 nM)
CEM-SS cells were incubated at 37° C./5% CO2 with serially diluted compound and a known titer of HIV-1IIIB for 6 days. The CEM-SS cell line is a derivative of the human T lymphosarcoma cell line CEM that is permissive for vif-deficient HIV-1 replication. Following the incubation, the cells were stained with the tetrazolium dye XTT and read at 460/650 nm on a spectrophotometer to evaluate cellular viability. Efficacy and toxicity values were calculated using linear regression analysis.
A general note: Tetrazolium assays rely on reduction of a dye to a coloured formazan, in cell work by metabolically active cells.

As usually defined, the EC50 is the concentration at which the effect is half-maximal. Low values mean greater potency, high ones weaker potency.

Like-named read-outs stand apart in the source and are kept apart here.

`C[C@@H]1CCO[C@H]2Cn3cc(C(=O)NCc4ccc(F)cc4F)c(=O)c(O)c3C(=O)N12` [Compound I, Dolutegravir]: the EC50 (Human immunodeficiency virus 1, CEM-SS, 144 h) amounted to 0.12 nM.

Consider `C[C@@H]1CCO[C@H]2Cn3cc(C(=O)C(=O)NCc4ccc(F)cc4F)c(O)c3C(=O)N12` [Compound II-a], for which the concentration for a half-maximal effect (EC50) amounted to 0.095 nM.

These data come from patent publication US20210380602A1, “NOVEL PYRROLE AND PYRIDONE DERIVATIVES AND USES THEREOF” (VIRGINIA COMMONWEALTH UNIVERSITY, priority 2018, published 2021).
